Source: patent US7678913B2, “Ureas as factor Xa inhibitors” (Portola Pharmaceuticals, Inc., priority 2004, dated 2010)

What follows are molecules tested against T1, human plasma protein factor Xa (Homo sapiens, UniProt P00742) (assay: Factor Xa IC50 determination (cleavage of chromogenic substrate S-2765)). Conditions: fXa 1 nM, S-2765 100 μM, Tris buffered saline pH 7.4, room temperature.
T1 construct: measure proteolytic activity of the enzyme (factor Xa); purchased Haematologic Technologies (Essex Junction, Vt.); host or cells: human plasma
T1 sequence (P00742 235-488 limits assumed): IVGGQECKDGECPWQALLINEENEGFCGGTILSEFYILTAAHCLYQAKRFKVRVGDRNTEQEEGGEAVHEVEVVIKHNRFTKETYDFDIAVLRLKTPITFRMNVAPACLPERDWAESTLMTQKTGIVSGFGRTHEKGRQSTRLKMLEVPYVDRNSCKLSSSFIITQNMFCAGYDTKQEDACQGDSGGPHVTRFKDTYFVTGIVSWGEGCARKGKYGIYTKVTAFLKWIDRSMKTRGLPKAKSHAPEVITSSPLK
T1 sequence (P00742 41-179 partner limits assumed): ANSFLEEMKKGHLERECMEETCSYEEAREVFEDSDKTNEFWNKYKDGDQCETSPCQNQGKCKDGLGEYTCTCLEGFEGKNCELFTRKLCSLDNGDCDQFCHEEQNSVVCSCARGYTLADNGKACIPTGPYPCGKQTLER
Assay type: biochemical
Outline: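 Human plasma factor Xa (1 nM) preincubated 5 min at room temperature with inhibitor (0.01 nM–10 μM final) in Tris-buffered saline pH 7.4 with CaCl2, BSA and 5% DMSO. S-2765 added at 100 μM; pNA release at 405 nm over 2 min; initial velocities fitted to four-parameter equation for IC50, duplicates.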
Molecule `O=C(Nc1ccc(Cl)cc1)NC(C(=O)N1CCC(N2CCOCC2=O)CC1)c1ccccc1Cl` (stereo not drawn) [Example 145, 4-(3-morpholinon-4-yl)piperidin-1-yl-2-(2-chlorophenyl)-2-(4-chlorophenylaminocarbonylamino)-acetamide] has an IC50 of no more than 0.1 µM. In the case of `CN1CCC(C2CCN(C(=O)[C@H](NC(=O)Nc3ccc(Cl)cc3)c3ccccc3)CC2)CC1` [Example 155, (2R) 4-(1-methylpiperidin-4-yl)piperidin-1-yl-2-phenyl-2-(4-chlorophenylaminocarbonylamino)-acetamide], the IC50 is reported as no more than 0.1 µM. Work on `CN(C)C(=N)c1ccc(NC(=O)C(NC(=O)Nc2ccc(Cl)cc2)c2cccs2)cc1` (stereo not drawn) [Example 19, N-[4-(dimethylaminoimino)phenyl]-2-(2-thienyl)-2-(4-chlorophenylamino-carbonylamino)-acetamide] yielded an IC50 of no more than 0.1 µM. In the case of `CN(C)C(=N)c1ccc(NC(=O)C(NC(=O)Nc2ccc(Cl)cc2)c2ccccc2Cl)cc1` (stereo not drawn) [Example 100, N-[4-(dimethylaminoimino)phenyl]-2-(2-chlorophenyl)-2-(4-chlorophenylaminocarbonylamino)-acetamide], the IC50 is reported as no more than 0.1 µM. Molecule `Cc1ccccc1C(NC(=O)Nc1ccc(Cl)cc1)C(=O)Nc1ccc(-n2ccnc2CN(C)C)cc1F` (stereo not drawn) [Example 85, N-[4-(2-dimethylaminomethyl-imidazol-1-yl)-2-fluorophenyl]-2-(2-methylphenyl)-2-(4-chlorophenylaminocarbonylamino)-acetamide] has an IC50 of no more than 0.1 µM. With `N=C(c1ccc(NC(=O)C(NC(=O)Nc2ccc(Cl)cc2)c2ccccc2Br)cc1)N1CCCC1` (stereo not drawn) [Example 81] the IC50 was no more than 0.1 µM. Work on `O=C(Nc1ccc(Cl)cc1)NC(C(=O)Nc1ccc(-c2cccc[n+]2[O-])cc1)c1ccccc1Br` (stereo not drawn) [Example 79, N-[4-(N-oxo-pyridin-2-yl)phenyl]-2-(2-bromophenyl)-2-(4-chlorophenylaminocarbonylamino)-acetamide] yielded an IC50 of no more than 0.1 µM. In the case of `CC(C)C(NC(=O)Nc1ccc(Cl)cc1)C(=O)Nc1ccc(C2=NCCN2C)cc1` (stereo not drawn) [Example 2, N-[4-(1-methyl-4,5-dihydro-1H-imidazol-2-yl)phenyl]-2-isopropyl-2-(4-chlorophenylaminocarbonylamino)-acetamide], the IC50 is reported as no more than 0.1 µM. Molecule `O=C(Nc1ccc(Cl)s1)N[C@H](C(=O)Nc1ccc(-n2ccccc2=O)cc1)c1ccccc1` [Example 139, (2S) N-[4-(2-pyridon-1-yl)phenyl]-2-phenyl-2-(2-chlorothiophen-5-ylaminocarbonylamino)-acetamide] has an IC50 of no more than 0.1 µM. `CN1CCN=C1c1ccc(NC(=O)C(NC(=O)Nc2ccc(F)cc2)c2cccs2)cc1` (stereo not drawn) [Example 17, N-[4-(1-methyl-4,5-dihydro-1H-imidazol-2-yl)phenyl]-2-(2-thienyl)-2-(4-fluorophenylaminocarbonylamino)-acetamide] gave an IC50 of 0.1 to 0.5 µM. With `C#CCC(NC(=O)Nc1ccc(Cl)cc1)C(=O)Nc1ccc(C2=NCCN2C)cc1` (stereo not drawn) [Example 129, N-[4-(1-methyl-4,5-dihydro-1H-imidazol-2-yl)phenyl]-2-propargyl-2-(4-chlorophenylaminocarbonylamino)-acetamide] the IC50 was no more than 0.1 µM. Work on `C=CCC(NC(=O)Nc1ccc(Cl)cc1)C(=O)Nc1ccc(-c2cccc[n+]2[O-])cc1` (stereo not drawn) [Example 133, N-[4-(N-oxo-pyridin-2-yl)phenyl]-2-allyl-2-(4-chlorophenylaminocarbonylamino)-acetamide] yielded an IC50 of no more than 0.1 µM. `CN1CCN=C1c1ccc(NC(=O)[C@@H](CC(=O)O)NC(=O)Nc2ccc(Cl)cc2)cc1` [Example 62, (2R) N-[4-(1-methyl-4,5-dihydro-1H-imidazol-2-yl)phenyl]-2-carboxymethyl-2-(4-chlorophenylaminocarbonylamino)-acetamide] was tested, and the IC50 was 0.1 to 0.5 µM. `CN1CCN=C1c1ccc(NC(=O)C(CC(N)=O)NC(=O)Nc2ccc(Cl)cc2)cc1` (stereo not drawn) [Example 71, N-[4-(1-methyl-4,5-dihydro-1H-imidazol-2-yl)phenyl]-2-(aminocarbonylmethyl)-2-(4-chlorophenylaminocarbonylamino)-acetamide] gave an IC50 of no less than 0.5 µM. `N=C(c1ccc(NC(=O)C(NC(=O)Nc2ccc(Cl)cc2)c2ccccc2F)cc1)N1CCCCC1` (stereo not drawn) [Example 42] was tested, and the IC50 was no more than 0.1 µM. With `CN1CCN=C1c1ccc(NC(=O)[C@H](CC(=O)OCc2ccccc2)NC(=O)Nc2ccc(Cl)cc2)cc1` [Example 59] the IC50 was no more than 0.1 µM. For `O=C(Nc1ccc(Cl)cc1)NC(C(=O)Nc1ccc(-c2cccc[n+]2[O-])cc1)c1ccccc1Oc1ccccc1` (stereo not drawn) [Example 125, N-[4-(N-oxo-pyridin-2-yl)phenyl]-2-(2-phenoxyphenyl)-2-(4-chlorophenylaminocarbonylamino)-acetamide], the IC50 was no more than 0.1 µM. `Cc1ccccc1C(NC(=O)Nc1ccc(Cl)cc1)C(=O)Nc1ccc(-c2ccccc2CN(C)C)cc1` (stereo not drawn) [Example 89, N-[4-(2-dimethylaminomethyl-phenyl)phenyl]-2-(2-methylphenyl)-2-(4-chlorophenylaminocarbonylamino)-acetamide] was tested, and the IC50 was no more than 0.1 µM. With `CN(C)C(=N)c1ccc(N2C(=O)C(NC(=O)Nc3ccc(Cl)cc3)Cc3ccccc32)cc1` (stereo not drawn) [Example 134, 1-[4-(dimethylaminoimino)phenyl]-3-(4-chlorophenylaminocarbonylamino)-3,4-dihydroquinolin-2-one] the IC50 was 0.1 to 0.5 µM. `CN1CCN=C1c1ccc(NC(=O)C(NC(=O)Nc2ccc(Cl)cc2)c2ccsc2)cc1` (stereo not drawn) [Example 13, N-[4-(1-methyl-4,5-dihydro-1H-imidazol-2-yl)phenyl]-2-(3-thienyl)-2-(4-chlorophenylaminocarbonylamino)-acetamide] gave an IC50 of no more than 0.1 µM. With `Cc1ccccc1C(NC(=O)Nc1ccc(Cl)cc1)C(=O)NC1CCN(C(C)C)CC1` (stereo not drawn) [Example 90, N-(1-isopropylpiperidin-4-yl)-2-(2-methylphenyl)-2-(4-chlorophenylamino-carbonylamino)-acetamide] the IC50 was no less than 0.5 µM. With `CCN(C)C(=N)c1ccc(NC(=O)C(NC(=O)Nc2ccc(Cl)cc2)c2ccccc2)cc1` (stereo not drawn) [Example 24, N-[4-(N-methyl-N-ethylaminoimino)phenyl]-2-phenyl-2-(4-chlorophenylaminocarbonylamino)-acetamide] the IC50 was no more than 0.1 µM. For `CC(C)N1CCC(NC(=O)C(NC(=O)Nc2ccc(Cl)cc2)c2ccccc2Br)CC1` (stereo not drawn) [Example 82, N-(1-isopropylpiperidin-4-yl)-2-(2-bromophenyl)-2-(4-chlorophenylamino-carbonylamino)-acetamide], the IC50 was no less than 0.5 µM. `O=C(Nc1ccc(Cl)cc1)NC(C(=O)N1CCC(N2CCOCC2=O)CC1)c1ccccc1F` (stereo not drawn) [Example 144, 4-(3-morpholinon-4-yl)piperidin-1-yl-2-(2-fluorophenyl)-2-(4-chlorophenylaminocarbonylamino)-acetamide] gave an IC50 of no more than 0.1 µM. `O=C(Nc1ccc(Cl)cc1)NC(C(=O)N1CCC(N2CCOCC2=O)CC1)c1ccccc1Br` (stereo not drawn) [Example 146, 4-(3-morpholinon-4-yl)piperidin-1-yl-2-(2-bromophenyl)-2-(4-chlorophenylaminocarbonylamino)-acetamide] gave an IC50 of 0.1 to 0.5 µM. Molecule `Cc1ccccc1C(NC(=O)Nc1ccc(Cl)cc1)C(=O)Nc1ccc(N2CCCN(C)CC2)cc1` (stereo not drawn) [Example 92, N-[4-(4-methyl-homopiperazinyl)phenyl]-2-(2-methylphenyl)-2-(4-chlorophenylaminocarbonylamino)-acetamide] has an IC50 of no more than 0.1 µM. In the case of `O=C(Nc1ccc(Cl)cc1)N[C@@H](C(=O)N1CCC(N2CCOCC2=O)CC1)c1ccccc1` [Example 142, (2R) 4-(3-morpholinon-4-yl)piperidin-1-yl-2-phenyl-2-(4-chlorophenylaminocarbonylamino)-acetamide], the IC50 is reported as no more than 0.1 µM.
